Experimental data taken from patent US4515941A, “23-Demycinosyldesmycosin derivatives” (Toyo Jozo Kabushiki Kaisha, priority 1982, dated 1985).
Values after ≈ are worked out from the molar mass of the structure shown.

What was measured:
Type in all cases: cell-based
[1] = test system: Staphylococcus aureus ATCC 6538P; assay: MIC, Staphylococcus aureus ATCC 6538P; details: ATCC6538P, read-out: MIC
[2] = test system: Staphylococcus aureus MS353; assay: MIC, Staphylococcus aureus MS353; details: Staphylococcus aureus MS353; read-out: MIC
[3] = test system: Staphylococcus aureus MS353 C36; assay: MIC, Staphylococcus aureus MS353 C36; details: MS353C36
[4] = test system: Staphylococcus aureus MS353 A0; assay: MIC, Staphylococcus aureus MS353 A0 (macrolide resistant); details: MS353A0, macrolide resistant bacteria A group
Source text: (§1) *macrolide resistant bacteria A group (clinical isolates of erythromycin,
(§2) oleandomycin and 16membered macrolide antibiotic resistant strains.)

[5] = test system: Staphylococcus aureus 0119; assay: MIC, Staphylococcus aureus 0119 (macrolide resistant); details: macrolide resistant bacteria A group
Source text: as §1, §2

[6] = test system: Staphylococcus aureus 0127; assay: MIC, Staphylococcus aureus 0127 (macrolide resistant); details: Staphylococcus aureus 0127; macrolide resistant bacteria A group; read-out: MIC
Source text: as §1, §2

[7] = test system: Staphylococcus epidermis sp-al-1; assay: MIC, Staphylococcus epidermis sp-al-1; details: SPAL1; Staphylococcus epidermis sp-al-1; read-out: MIC
[8] = test system: Streptococcus pyogenes N.Y.5; assay: MIC, Streptococcus pyogenes N.Y.5; details: read-out: MIC
[9] = test system: Streptococcus pyogenes 1022; assay: MIC, Streptococcus pyogenes 1022 (macrolide resistant); details: Streptococcus pyogenes 1022; macrolide resistant bacteria A group; read-out: MIC
Source text: as §1, §2

[10] = test system: Streptococcus faecalis 1501; assay: MIC, Streptococcus faecalis 1501; details: Enterococcus faecalis; Streptococcus faecalis 1501; read-out: MIC
[11] = test system: Streptococcus agalactiae 1020; assay: MIC, Streptococcus agalactiae 1020; details: Streptococcus agalactiae 1020; read-out: MIC
Sarcina lutea ATCC 9341 = assay: MIC, Sarcina lutea ATCC 9341; details: Micrococcus luteus, ATCC9341
[12] = test system: Micrococcus flavus ATCC 10240; assay: MIC, Micrococcus flavus ATCC 10240; details: ATCC10240; Micrococcus flavus ATCC 10240; read-out: MIC
[13] = test system: Corynebacterium diptheriae P.Y.8; assay: MIC, Corynebacterium diptheriae P.Y.8; details: Corynebacterium diptheriae P.Y.8; read-out: MIC
[14] = test system: Bacillus subtilis ATC 6633; assay: MIC, Bacillus subtilis ATC 6633; details: ATC6633; Bacillus subtilis ATC 6633; read-out: MIC
[15] = test system: Escherichia coli NIHJ-JC2; assay: MIC, Escherichia coli NIHJ-JC2; details: NIHJJC2
Escherichia coli B = assay: MIC, Escherichia coli B
[16] = test system: Klebsiella pneumoniae ATCC 10031; assay: MIC, Klebsiella pneumoniae ATCC 10031; details: ATCC10031; Klebsiella pneumoniae ATCC 10031; read-out: MIC
Salmonella typhosa H901 = assay: MIC, Salmonella typhosa H901; details: Salmonella enterica, TYPHOSA
[17] = test system: Salmonella enteritidis Gaertner; assay: MIC, Salmonella enteritidis Gaertner; details: Salmonella enterica; Salmonella enteritidis Gaertner; read-out: MIC
[18] = test system: Shigella flexineri type 3a; assay: MIC, Shigella flexineri type 3a; details: TYPE3A
Shigella sonnei E33 = assay: MIC, Shigella sonnei E33
Proteus vulgaris OX19 = assay: MIC, Proteus vulgaris OX19; details: Proteus vulgaris OX19; read-out: MIC
Serratia marcescens = assay: MIC, Serratia marcescens; details: read-out: MIC
[19] = test system: Pseudomonas aeruginosa IAM 1095; assay: MIC, Pseudomonas aeruginosa IAM 1095; details: IAM1095; Pseudomonas aeruginosa IAM 1095; read-out: MIC

Structure (SMILES) | MIC [1] | MIC [2] | MIC [3] | MIC [4] | MIC [5] | MIC [6] | MIC [7] | MIC [8] | MIC [9] | MIC [10] | MIC [11] | MIC (Sarcina lutea ATCC 9341) | MIC [12] | MIC [13] | MIC [14] | MIC [15] | MIC (Escherichia coli B) | MIC [16] | MIC (Salmonella typhosa H901) | MIC [17] | other results
CCC1OC(=O)CC(O)C(C)C(OC2OC(C)C(O)C(N(C)C)C2O)C(CC=O)CC(C)C(=O)C=CC(C)=CC1COc1ccc(OC)cc1 (centres unmarked) | 0.2 µg/mL (≈ 0.284 µM) | 0.2 µg/mL (≈ 0.284 µM) | 0.1 µg/mL (≈ 0.142 µM) | 100 µg/mL (≈ 142 µM) | > 100 µg/mL | > 100 µg/mL | ≤ 0.05 µg/mL | ≤ 0.05 µg/mL | 100 µg/mL (≈ 142 µM) | 0.2 µg/mL (≈ 0.284 µM) | ≤ 0.05 µg/mL | ≤ 0.05 µg/mL | ≤ 0.05 µg/mL | ≤ 0.05 µg/mL | 0.2 µg/mL (≈ 0.284 µM) | > 100 µg/mL | 100 µg/mL (≈ 142 µM) | 3.1 µg/mL (≈ 4.4 µM) | > 100 µg/mL | > 100 µg/mL | MIC [18]: 50 µg/mL (≈ 71 µM); MIC (Shigella sonnei E33): > 100 µg/mL; MIC (Proteus vulgaris OX19): 50 µg/mL (≈ 71 µM); MIC (Serratia marcescens): > 100 µg/mL; MIC [19]: > 100 µg/mL
CCC1OC(=O)CC(O)C(C)C(OC2OC(C)C(O)C(N(C)C)C2O)C(CC=O)CC(C)C(=O)C=CC(C)=CC1COc1cccc([N+](=O)[O-])c1 (centres unmarked) | 0.1 µg/mL (≈ 0.139 µM) | 0.1 µg/mL (≈ 0.139 µM) | 0.1 µg/mL (≈ 0.139 µM) | 100 µg/mL (≈ 139 µM) | > 100 µg/mL | 100 µg/mL (≈ 139 µM) | ≤ 0.05 µg/mL | ≤ 0.05 µg/mL | 50 µg/mL (≈ 69.6 µM) | 0.1 µg/mL (≈ 0.139 µM) | ≤ 0.05 µg/mL | ≤ 0.05 µg/mL | ≤ 0.05 µg/mL | ≤ 0.05 µg/mL | ≤ 0.05 µg/mL | 100 µg/mL (≈ 139 µM) | 50 µg/mL (≈ 69.6 µM) | 1.6 µg/mL (≈ 2.23 µM) | 100 µg/mL (≈ 139 µM) | > 100 µg/mL | MIC [18]: 12.5 µg/mL (≈ 17.4 µM); MIC (Shigella sonnei E33): 100 µg/mL (≈ 139 µM); MIC (Proteus vulgaris OX19): 25 µg/mL (≈ 34.8 µM); MIC (Serratia marcescens): 50 µg/mL (≈ 69.6 µM); MIC [19]: 50 µg/mL (≈ 69.6 µM)
